From US9598451B2, “Bis-organometallic 2-amino-3-hydroxy-2-methylpropanenitrile derivatives for use as anthelmintics” (UNIVERSITÄT ZÜRICH, priority 2013, dated 2017)
pIC50: −log10 of the molar value.

Experiments:
Format in all cases: cell-based
[1] = tested on: C. elegans; assay: C. elegans movement inhibition assay; conditions: for mobility of the C. elegans worms: 50 μM, result in words
Description: C. elegans movement inhibition assay: Asynchronous N2 C. elegans worms (Bristol) were maintained on nematode growth medium (NGM) agar, seeded with a lawn on OP50 E. coli as a food-source, according to standard protocol (Maintenance of C. elegans; Stiernagle, T., Ed.; WormBook, 2006.). Worms were harvested from NGM plates by washing with M9 buffer (42 mmol/l Na2HPO4, 86 mmol/l NaCl and 1 mmol/l MgSO4), aspiration and collection in a 10 mL tube (Falcon). The average number of worms in 5 μL of this suspension was calculated by transferring 4×5 μL aliquots to a glass slide (Menzel Glaser), and worms were enumerated under a compound microscope (Olympus CH30). To adjust the suspension to contain 1 worm per μL, M9 buffer was either added or removed after pelleting worms at 600×g for 30 sec.
Dilution of test compounds, Zolvix (monepantel) and DMSO for working stock solutions and 96 well plate set-up for liquid screen: A volume of […] buffer was added to each well in a 96-well plate, using a multichannel pipettor. A volume of 20μL of worm suspension was added to each well using a single-channel pipettor, with a trimmed pipette tip (increased aperture to minimize damage to worms). The worm suspension was resuspended by flicking after every three wells to maintain consistency. The compounds were stored at 4° C., and diluted in dimethyl sulfoxide (DMSO) to achieve a 100 mmol/l concentration 1 hr prior to addition to assay. These stock solutions were diluted further in DMSO to create a series of 20 mmol/l, […] and 0.002 mmol/l which were subsequently diluted 1:20 in M9 buffer to create 1 mmol/l, 0.1 mmol/l, 1 μmol/l and 0.1 μmol/l (all 5% (v/v) DMSO). […] A Zolvix (monepantel) dilution series was simultaneously created following the same dilution schema, and used as a positive control; 10 μL of 10% DMSO was added to achieve 1% DMSO vehicle control. 10 μL M9 was added to negative control wells (see FIG. 1). Plates were incubated at […]
Quantitative worm mobility scoring: Immobile worms were counted as a percentage of total worms in each well using an Olympus SZ30 dissecting microscope. The immobile fraction was subtracted from the total, and this remainder was divided by the total to give a percentage of live worms per well. Descriptive and inferential statistics were deferred until further replicates are performed.

[2] = tested on: H. contortus; assay: larval development assay (number of L3)
Description: In vitro experiments can be conducted by testing compounds in a larval development assay. To do this, sheep are infected with infective third-stage larvae (L3) of species of Haemonchus, Trichstrongylus, Teledorsagia, Cooperia, Oesophagostomum or Chabertia. Faeces from these sheep are collected and used for experiments; ˜100 g of faeces are crushed homogenized and suspended in ˜1000 ml of sugar solution (specific gravity 1.2), put through a ‘tea strainer’ sieve, and the large undigested food material in the sieve discarded. The sugar solution is then placed into a flat dish and strips of plastic overhead transparency film placed on the surface. The plastic is left for at least 45 minutes to allow the eggs to stick and then removed carefully. The eggs are collected by washing them from the plastic film, with water, into a 50 ml centrifuge tube. The water containing egg suspension eggs is put through a […] to remove further plant material and then centrifuged at 1,000×g for 10 minutes. The supernatant is checked for eggs and then discarded as the majority of eggs are at the bottom of the tube. These eggs are collected in 1 ml of water and diluted to ˜200 eggs/20 ml. • 1. […] Following 7 days additional incubation, the numbers of L3 larvae that had developed in each well is determined.

[3] = tested on: human lung fibroblasts MRC-5; assay: fluorometric cell viability assay (Resazurin), MRC-5; conditions: MRC-5 cells, treated for 2 days
Description: (§1) Cell Culture: Human cervical carcinoma cells (HeLa) were cultured in DMEM (Gibco) supplemented with 5% fetal calf serum (FCS, Gibco), 100 U/ml penicillin, 100 μg/ml streptomycin at 37° C. and 5% CO2. The normal human fetal lung fibroblast MRC-5 cell line was maintained in F-10 medium (Gibco) supplemented with 10% FCS (Gibco), 200 mmol/l L-Glutamine, 100 U/ml penicillin, and 100 μg/ml streptomycin at 37° C. and 5% CO2. To establish the anticancer potential of the compounds they were tested in one cell line, namely HeLa by a fluorometric cell viability assay using Resazurin (Promocell GmbH). Compounds showing cytotoxicity were then tested on normal MRC-5 cells. 1 day before treatment, cells were plated in triplicates in 96-well plates at a density of 4×10^3 cells/well in 100μl for HeLa and 7×10^3 cells/well for MRC-5 cells. Cells were treated with increasing concentrations of the compounds for 2 days. After 2 days, medium and drug were removed and […] fresh medium containing Resazurin (0.2 mg/ml final concentration) were added. After 4h of incubation at 37° C., the highly red fluorescent dye resorufin's fluorescence was quantified at 590 nm emission with 540 nm excitation wavelength in the SpectraMax M5 microplate Reader. […]

[4] = tested on: human cervical cancer HeLa; assay: fluorometric cell viability assay (Resazurin), HeLa; conditions: HeLa cells, treated for 2 days
Description: as §1

Substance	Mobility in C. elegans at 50 μM [1] [%]	mobility of the C. elegans worms [1]	Number of L3 H. contortus/100 μM [2]	pIC50 [3]	pIC50 [4]
N-(1-(ferrocenyloxy)-2-cyanopropan-2-yl)ferroceneamide [Compound 1]	25	reduced	94.7	–	–
2-Ferroceneamido-2-cyanopropyl ferrocenate [Compound 2]	22	reduced	>100	4.61	< 4.00
2-Cyano-2-(ruthenocenecarboxamido)propyl ruthenocnecarboxylate [Compound 2a]	–	–	–	< 4.00	< 4.00
